# Source: the supplement of paper PMC10307832
# Experiments:
# Assay in all cases: relative viability (nuclei count vs DMSO), 5 days (fraction); higher = more cells survive
# [1] = test system: NCI-H1975
# Outline: (§1)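 Cells from lung cancer lines were seeded into 1536-well plates and, one day later, dosed by pin tool. Treatments were either a single drug or a fixed dose of an anchor drug with five library-drug doses (not always all listed) in √10 steps. After 5 days, nuclei were stained in a one-step fixation (final 0.05% Triton X-100, 1% formaldehyde, 1 ug/ml Hoechst) and counted on 4× images, and relative viability is the treated-to-vehicle nuclei ratio, as the median of duplicate plates.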
# [2] = test system: NCI-H2085
# Outline: as §1
# [3] = test system: NCI-H2126
# Outline: as §1
# [4] = test system: NCI-H460
# Outline: as §1
# [5] = test system: NCI-H520
# Outline: as §1
# [6] = test system: NCI-H596
# Outline: as §1
# [7] = test system: NCI-H647
# Outline: as §1
# [8] = test system: NCI-H661
# Outline: as §1
# [9] = test system: NCI-H727
# Outline: as §1
# [10] = test system: NCI-H838
# Outline: as §1
# [11] = test system: RERF-LC-KJ
# Outline: as §1
# [12] = test system: SW 900
# Outline: as §1
smiles,measurement,setting,value
Cc1cn(-c2cc(NC(=O)c3ccc(C)c(Nc4nccc(-c5cccnc5)n4)c3)cc(C(F)(F)F)c2)cn1 [Nilotinib] + COc1cccc2cc(-c3nc([C@H]4CC[C@H](C(=O)O)CC4)n4ncnc(N)c34)[nH]c12 [OSI-027] (partner 0.5 µM),relative viability,[1]; first compound 0.01 µM,0.149
same,relative viability,[1]; first compound 0.03162 µM,0.409
same,relative viability,[1]; first compound 0.1 µM,0.32
same,relative viability,[2]; first compound 0.001 µM,0.695
same,relative viability,[2]; first compound 0.003162 µM,0.549
same,relative viability,[2]; first compound 0.01 µM,0.699
same,relative viability,[2]; first compound 0.03162 µM,0.428
same,relative viability,[2]; first compound 0.1 µM,0.467
same,relative viability,[3]; first compound 0.001 µM,0.673
same,relative viability,[3]; first compound 0.003162 µM,0.706
same,relative viability,[3]; first compound 0.01 µM,0.572
same,relative viability,[3]; first compound 0.03162 µM,0.582
same,relative viability,[3]; first compound 0.1 µM,0.544
same,relative viability,[4]; first compound 0.001 µM,0.367
same,relative viability,[4]; first compound 0.003162 µM,0.2
same,relative viability,[4]; first compound 0.01 µM,0.327
same,relative viability,[4]; first compound 0.03162 µM,0.255
same,relative viability,[4]; first compound 0.1 µM,0.0921
same,relative viability,[5]; first compound 0.001 µM,0.269
same,relative viability,[5]; first compound 0.003162 µM,0.279
same,relative viability,[5]; first compound 0.01 µM,0.325
same,relative viability,[5]; first compound 0.03162 µM,0.281
same,relative viability,[5]; first compound 0.1 µM,0.276
same,relative viability,[6]; first compound 0.001 µM,0.725
same,relative viability,[6]; first compound 0.003162 µM,0.655
same,relative viability,[6]; first compound 0.01 µM,0.57
same,relative viability,[6]; first compound 0.03162 µM,0.306
same,relative viability,[6]; first compound 0.1 µM,0.415
same,relative viability,[7]; first compound 0.001 µM,0.638
same,relative viability,[7]; first compound 0.003162 µM,0.749
same,relative viability,[7]; first compound 0.01 µM,0.762
same,relative viability,[7]; first compound 0.03162 µM,0.355
same,relative viability,[7]; first compound 0.1 µM,0.644
same,relative viability,[8]; first compound 0.001 µM,0.672
same,relative viability,[8]; first compound 0.003162 µM,0.69
same,relative viability,[8]; first compound 0.03162 µM,0.538
same,relative viability,[8]; first compound 0.1 µM,0.634
same,relative viability,[9]; first compound 0.001 µM,0.57
same,relative viability,[9]; first compound 0.003162 µM,0.477
same,relative viability,[9]; first compound 0.01 µM,0.697
same,relative viability,[9]; first compound 0.03162 µM,0.44
same,relative viability,[9]; first compound 0.1 µM,0.344
same,relative viability,[10]; first compound 0.001 µM,0.427
same,relative viability,[10]; first compound 0.003162 µM,0.381
same,relative viability,[10]; first compound 0.01 µM,0.377
same,relative viability,[10]; first compound 0.03162 µM,0.35
same,relative viability,[10]; first compound 0.1 µM,0.429
same,relative viability,[11]; first compound 0.001 µM,0.501
same,relative viability,[11]; first compound 0.003162 µM,0.586
same,relative viability,[11]; first compound 0.01 µM,0.53
same,relative viability,[11]; first compound 0.03162 µM,0.438
same,relative viability,[11]; first compound 0.1 µM,0.374
same,relative viability,[12]; first compound 0.001 µM,0.46
same,relative viability,[12]; first compound 0.003162 µM,0.492
same,relative viability,[12]; first compound 0.01 µM,0.595
same,relative viability,[12]; first compound 0.03162 µM,0.354
same,relative viability,[12]; first compound 0.1 µM,0.465
